From paper PMC3994546 (Chemico-biological interactions, 2014)

Molecular target: T1, hSULT2A1 E-PAP complex (Homo sapiens, UniProt Q06520)
T1 sequence (Q06520 1-285): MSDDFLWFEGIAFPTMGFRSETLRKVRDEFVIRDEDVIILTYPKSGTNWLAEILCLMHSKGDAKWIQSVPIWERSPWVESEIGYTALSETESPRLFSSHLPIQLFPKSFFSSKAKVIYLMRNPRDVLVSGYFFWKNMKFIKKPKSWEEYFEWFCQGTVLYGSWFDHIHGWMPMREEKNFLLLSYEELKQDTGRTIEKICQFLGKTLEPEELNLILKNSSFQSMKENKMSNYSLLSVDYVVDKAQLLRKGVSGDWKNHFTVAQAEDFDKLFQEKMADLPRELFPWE
Test: Ligand binding to the hSULT2A1-PAP complex by ANS fluorescence displacement
Settings: not given

Row | SMILES | Kd [µM]
1 | Oc1c(Cl)cc(-c2ccccc2)cc1Cl [4-OHPCB 14, 4-hydroxy-3,5-dichlorobiphenyl] | 2.21 ± 0.5
2 | Oc1c(Cl)cc(-c2ccccc2Cl)cc1Cl [4-OHPCB 34, 4-hydroxy-2’, 3,5-trichlorobiphenyl] | 3.2 ± 0.31

Molecular target: T2, hSULT2A1 (Homo sapiens, UniProt Q06520)
T2 sequence (Q06520 1-285): T1 sequence (Q06520 1-285)
Test: not given
Settings: cited from earlier work

Row | SMILES | substrate for hSULT2A1-catalyzed sulfation
3 | Oc1c(Cl)cc(-c2cccc(Cl)c2)cc1Cl [4-OHPCB 36, 4-hydroxy-3, 3’, 5-trichlorobiphenyl] | served as alternate substrates
4 | Oc1ccc(-c2ccc(Cl)c(Cl)c2)c(Cl)c1 [4’-OHPCB 33, 4’-hydroxy-2’, 3,4-trichlorobiphenyl] | served as alternate substrates
5 | Oc1ccc(-c2ccc(Cl)cc2Cl)cc1Cl [4’-OHPCB 25, 4’-hydroxy-2, 3’, 4-trichlorobiphenyl] | served as alternate substrates
6 | Oc1ccc(-c2ccc(Cl)cc2)c(Cl)c1 [4-OHPCB 8, 4-hydroxy-2, 4’-dichlorobiphenyl] | served as alternate substrates
7 | Oc1c(Cl)cc(-c2ccccc2)cc1Cl [4-OHPCB 14, 4-hydroxy-3,5-dichlorobiphenyl] | served as alternate substrates
8 | Oc1c(Cl)cc(-c2ccc(Cl)cc2Cl)cc1Cl [4’-OHPCB 68, 4’-hydroxy-2, 3’, 4, 5’-tetrachlorobiphenyl] | served as alternate substrates
9 | Oc1c(Cl)cc(-c2ccccc2Cl)cc1Cl [4-OHPCB 34, 4-hydroxy-2’, 3,5-trichlorobiphenyl] | served as alternate substrates
10 | Oc1ccc(-c2cccc(Cl)c2)cc1Cl [4-OHPCB 11, 4-hydroxy-3, 3’-dichlorobiphenyl] | served as alternate substrates

Molecular target: T2, hSULT2A1
Test: Kinetics of inhibition of hSULT2A1-catalyzed sulfation of [3H]DHEA by OHPCBs
Assay type: biochemical
Settings: not given

Row | SMILES | Ki [µM] | α value of partial competitive inhibition equation
11 | Oc1c(Cl)cc(-c2cccc(Cl)c2)cc1Cl [4-OHPCB 36, 4-hydroxy-3, 3’, 5-trichlorobiphenyl] | 3.4 ± 0.8 | 4.2
12 | Oc1ccc(-c2ccc(Cl)c(Cl)c2)c(Cl)c1 [4’-OHPCB 33, 4’-hydroxy-2’, 3,4-trichlorobiphenyl] | 3 ± 0.2 | 
13 | Oc1ccc(-c2ccc(Cl)cc2Cl)cc1Cl [4’-OHPCB 25, 4’-hydroxy-2, 3’, 4-trichlorobiphenyl] | 3 ± 0.6 | 
14 | Oc1ccc(-c2ccc(Cl)cc2)cc1 [4’-OHPCB 3, 4’-hydroxy-4-monochlorobiphenyl] | 17 ± 1.5 | 
15 | Oc1ccc(-c2ccc(Cl)cc2)cc1O [3’,4’-diOHPCB 3, 3’, 4’-dihydroxy-4-monochlorobiphenyl] | 32 ± 2.3 | 
16 | Oc1ccc(-c2ccc(Cl)cc2)c(Cl)c1 [4-OHPCB 8, 4-hydroxy-2, 4’-dichlorobiphenyl] | 5 ± 0.4 | 
17 | Oc1ccc(-c2ccccc2Cl)cc1Cl [4’-OHPCB 6, 4’-hydroxy-2, 3’-dichlorobiphenyl] | 5.4 ± 0.2 | 
18 | Oc1ccc(-c2cccc(Cl)c2Cl)cc1O [3’,4’-diOHPCB 5, 3’, 4’- dihydroxy-2,3-dichlorobiphenyl] | 14 ± 0.8 | 
19 | Oc1c(Cl)cc(-c2ccccc2)cc1Cl [4-OHPCB 14, 4-hydroxy-3,5-dichlorobiphenyl] | 13.5 ± 1 | 
20 | Oc1c(Cl)cc(-c2ccc(Cl)cc2Cl)cc1Cl [4’-OHPCB 68, 4’-hydroxy-2, 3’, 4, 5’-tetrachlorobiphenyl] | 0.6 ± 0.1 | 
21 | Oc1c(Cl)cc(-c2ccccc2Cl)cc1Cl [4-OHPCB 34, 4-hydroxy-2’, 3,5-trichlorobiphenyl] | 0.8 ± 0.1 | 
22 | Oc1ccc(-c2cc(Cl)ccc2Cl)cc1 [4’-OHPCB 9, 4’-hydroxy-2,5-dichlorobiphenyl] | 0.7 ± 0.1 | 
23 | Oc1ccc(-c2ccc(Cl)c(Cl)c2)cc1 [4’-OHPCB 12, 4’-hydroxy-3,4-dichlorobiphenyl] | 4 ± 0.3 | 
24 | Oc1ccc(-c2cccc(Cl)c2)cc1Cl [4-OHPCB 11, 4-hydroxy-3, 3’-dichlorobiphenyl] | 12 ± 0.9 | 

Same assay, conditions: fixed PAPS, varied DHEA and inhibitor; model chosen by R2 and AICc

Row | SMILES | type of inhibition with respect to DHEA (best-fit kinetic model)
25 | Oc1c(Cl)cc(-c2cccc(Cl)c2)cc1Cl [4-OHPCB 36, 4-hydroxy-3, 3’, 5-trichlorobiphenyl] | partial competitive inhibition
26 | Oc1ccc(-c2ccc(Cl)cc2Cl)cc1Cl [4’-OHPCB 25, 4’-hydroxy-2, 3’, 4-trichlorobiphenyl] | partial noncompetitive inhibition
27 | Oc1ccc(-c2ccccc2Cl)cc1Cl [4’-OHPCB 6, 4’-hydroxy-2, 3’-dichlorobiphenyl] | noncompetitive
28 | Oc1c(Cl)cc(-c2ccc(Cl)cc2Cl)cc1Cl [4’-OHPCB 68, 4’-hydroxy-2, 3’, 4, 5’-tetrachlorobiphenyl] | partial noncompetitive inhibition
29 | Oc1ccc(-c2cc(Cl)ccc2Cl)cc1 [4’-OHPCB 9, 4’-hydroxy-2,5-dichlorobiphenyl] | partial noncompetitive inhibition

Same assay, conditions: read-out: Ki, inhibition of the sulfation of DHEA catalyzed by hSULT2A1; nonlinear regression fit to noncompetitive inhibition equation (4-OHPCB 36: competitive inhibition equation); 200 µM PAPS, pH 7.0, 37°C

Row | SMILES | Ki [µM]
30 | Oc1ccc(Cl)cc1-c1ccc(Cl)c(Cl)c1 [6’-OHPCB 35, 6’-hydroxy-3, 3’-4 trichlorobiphenyl] | 9 ± 0.5

Same assay, conditions: signifies formation of DHEA-sulfate in the presence of the inhibitor

Row | SMILES | β value of partial noncompetitive inhibition equation
31 | Oc1ccc(-c2ccc(Cl)cc2Cl)cc1Cl [4’-OHPCB 25, 4’-hydroxy-2, 3’, 4-trichlorobiphenyl] | 0.19 ± 0.06
32 | Oc1c(Cl)cc(-c2ccc(Cl)cc2Cl)cc1Cl [4’-OHPCB 68, 4’-hydroxy-2, 3’, 4, 5’-tetrachlorobiphenyl] | 0.23 ± 0.07
33 | Oc1ccc(-c2cc(Cl)ccc2Cl)cc1 [4’-OHPCB 9, 4’-hydroxy-2,5-dichlorobiphenyl] | 0.11 ± 0.02

Molecular target: T2, hSULT2A1
Test: Ligand binding to free hSULT2A1 by ANS fluorescence displacement
Settings: not given

Row | SMILES | Kd [µM]
34 | Oc1c(Cl)cc(-c2cccc(Cl)c2)cc1Cl [4-OHPCB 36, 4-hydroxy-3, 3’, 5-trichlorobiphenyl] | 2.46 ± 0.43
35 | Oc1ccc(-c2ccc(Cl)cc2)cc1 [4’-OHPCB 3, 4’-hydroxy-4-monochlorobiphenyl] | 3.48 ± 1.03
36 | Oc1ccc(-c2ccc(Cl)cc2)cc1O [3’,4’-diOHPCB 3, 3’, 4’-dihydroxy-4-monochlorobiphenyl] | 1.17 ± 1.11
37 | Oc1c(Cl)cc(-c2ccccc2)cc1Cl [4-OHPCB 14, 4-hydroxy-3,5-dichlorobiphenyl] | 2.55 ± 0.63
38 | Oc1c(Cl)cc(-c2ccc(Cl)cc2Cl)cc1Cl [4’-OHPCB 68, 4’-hydroxy-2, 3’, 4, 5’-tetrachlorobiphenyl] | 2.26 ± 0.33
39 | Oc1c(Cl)cc(-c2ccccc2Cl)cc1Cl [4-OHPCB 34, 4-hydroxy-2’, 3,5-trichlorobiphenyl] | 2.07 ± 0.3

Same assay, conditions: free enzyme

Row | SMILES | binding pattern to hSULT2A1 (ANS displacement)
40 | Oc1ccc(-c2ccc(Cl)c(Cl)c2)c(Cl)c1 [4’-OHPCB 33, 4’-hydroxy-2’, 3,4-trichlorobiphenyl] | multiphasic binding
41 | Oc1ccc(Cl)cc1-c1ccc(Cl)c(Cl)c1 [6’-OHPCB 35, 6’-hydroxy-3, 3’-4 trichlorobiphenyl] | multiphasic behavior
42 | Oc1c(Cl)cc(-c2ccccc2)cc1Cl [4-OHPCB 14, 4-hydroxy-3,5-dichlorobiphenyl] | classical single-site binding characteristics
43 | Oc1c(Cl)cc(-c2ccccc2Cl)cc1Cl [4-OHPCB 34, 4-hydroxy-2’, 3,5-trichlorobiphenyl] | classical single-site binding characteristics
44 | Oc1ccc(-c2cc(Cl)ccc2Cl)cc1 [4’-OHPCB 9, 4’-hydroxy-2,5-dichlorobiphenyl] | multiphasic binding

Same assay, conditions: read-out: Kd2, binding to hSULT2A1 in the absence of substrates or products; free enzyme; two-site, nonspecific binding curve

Row | SMILES | Kd [µM]
45 | Oc1ccc(-c2ccc(Cl)cc2)cc1O [3’,4’-diOHPCB 3, 3’, 4’-dihydroxy-4-monochlorobiphenyl] | 41.9 ± 74.8

Same assay, conditions: with or without DHEA or PAP

Row | SMILES | difference in the multiphasic binding pattern in the presence or absence of either DHEA or PAP
46 | Oc1ccc(-c2ccc(Cl)c(Cl)c2)c(Cl)c1 [4’-OHPCB 33, 4’-hydroxy-2’, 3,4-trichlorobiphenyl] | did not show significant differences
47 | Oc1ccc(-c2cc(Cl)ccc2Cl)cc1 [4’-OHPCB 9, 4’-hydroxy-2,5-dichlorobiphenyl] | did not show significant differences
